Experimental data from the supplement of paper PMC13380429.

How the values were obtained:
Conditions in all cases: 72 h
HepG2 [1] = experiment: cell viability relative to DMSO; higher = less toxic
Vero E6 [2] = experiment: as above
Caco-2 [3] = experiment: as above
Calu-3 [4] = experiment: as above
U2OS [5] = experiment: as above
HepG2 [6] = experiment: relative viability EC50 (midpoint between 100% and the lowest measured viability); higher = less toxic
Vero E6 [7] = experiment: as above
Caco-2 [8] = experiment: as above
Calu-3 [9] = experiment: as above
U2OS [10] = experiment: as above
HepG2 [11] = experiment: drug sensitivity score (DSS) for viability; higher = more toxic; extreme values may be limits of the assay
Vero E6 [12] = experiment: as above
Caco-2 [13] = experiment: as above
Calu-3 [14] = experiment: as above
U2OS [15] = experiment: as above

SMILES | cell viability (HepG2 [1]; 1 nM) | cell viability (HepG2 [1]; 10 nM) | cell viability (HepG2 [1]; 100 nM) | cell viability (HepG2 [1]; 1000 nM) | cell viability (HepG2 [1]; 10000 nM) | cell viability (Vero E6 [2]; 1 nM) | cell viability (Vero E6 [2]; 10 nM) | cell viability (Vero E6 [2]; 100 nM) | cell viability (Vero E6 [2]; 1000 nM) | cell viability (Vero E6 [2]; 10000 nM) | cell viability (Caco-2 [3]; 1 nM) | cell viability (Caco-2 [3]; 10 nM) | cell viability (Caco-2 [3]; 100 nM) | cell viability (Caco-2 [3]; 1000 nM) | cell viability (Caco-2 [3]; 10000 nM) | cell viability (Calu-3 [4]; 1 nM) | cell viability (Calu-3 [4]; 10 nM) | cell viability (Calu-3 [4]; 100 nM) | cell viability (Calu-3 [4]; 1000 nM) | cell viability (Calu-3 [4]; 10000 nM) | cell viability (U2OS [5]; 1 nM) | cell viability (U2OS [5]; 10 nM) | cell viability (U2OS [5]; 100 nM) | cell viability (U2OS [5]; 1000 nM) | cell viability (U2OS [5]; 10000 nM) | relative viability EC50 (HepG2 [6]) | relative viability EC50 (Vero E6 [7]) | relative viability EC50 (Caco-2 [8]) | relative viability EC50 (Calu-3 [9]) | relative viability EC50 (U2OS [10]) | drug sensitivity score (HepG2 [11]) | drug sensitivity score (Vero E6 [12]) | drug sensitivity score (Caco-2 [13]) | drug sensitivity score (Calu-3 [14]) | drug sensitivity score (U2OS [15])
O=C(OCCOCCO)c1ccccc1Nc1cccc(C(F)(F)F)c1 [etofenamate] | 96.2% | 105% | 92.4% | 101% | 104% | 100% | 103% | 103% | 89.3% | 81.7% | 98.1% | 91% | 92.4% | 90.8% | 96.1% | 108% | 95.6% | 95.8% | 82.5% | 96.3% | 102% | 95.2% | 98.7% | 100% | 96.3% | > 10 µM | > 10 µM | > 10 µM | > 10 µM | > 10 µM | 0 | 1.5 | 0 | 0.1 | 0
Cc1oc(=O)oc1COC(=O)C1=C([C@H]2CCCO2)S[C@@H]2[C@@H]([C@@H](C)O)C(=O)N12 [faropenem-medoxomil] | 103% | 99.2% | 98.1% | 95.1% | 100% | 94.7% | 94.1% | 97.6% | 92.4% | 97.9% | 95.6% | 93.4% | 96.8% | 93.2% | 97.9% | 99.3% | 94.7% | 102% | 93% | 98.8% | 98.8% | 96.3% | 98.3% | 98.2% | 99.9% | > 10 µM | > 10 µM | > 10 µM | > 10 µM | > 10 µM | 0 | 0 | 0 | 0 | 0
CC(C)(Oc1ccc(C(=O)c2ccc(Cl)cc2)cc1)C(=O)O [fenofibric-acid] | 91.3% | 96.6% | 90.9% | 94.9% | 90.8% | 102% | 102% | 101% | 95.4% | 97% | 92.4% | 106% | 91.9% | 96.2% | 105% | 90.5% | 94.5% | 101% | 102% | 98.9% | 103% | 100% | 97.5% | 100% | 95.5% | > 10 µM | > 10 µM | > 10 µM | > 10 µM | > 10 µM | 0 | 0 | 0 | 0 | 0
Nc1nc(F)nc2c1ncn2[C@@H]1O[C@H](COP(=O)(O)O)[C@@H](O)[C@@H]1O [fludarabine-phosphate] | 90.9% | 85.3% | 94.7% | 98.5% | 77.7% | 104% | 105% | 101% | 101% | 97.6% | 94.5% | 106% | 98.6% | 96.9% | 101% | 97.1% | 86.8% | 98.3% | 92.9% | 89.2% | 103% | 105% | 97.4% | 99.7% | 104% | > 10 µM | > 10 µM | > 10 µM | > 10 µM | > 10 µM | 0 | 0 | 0 | 0 | 0
CC/C(=C(/CC)c1ccc(OP(=O)(O)O)cc1)c1ccc(OP(=O)(O)O)cc1 [fosfestrol] | 102% | 97.6% | 105% | 97.1% | 107% | 94.2% | 92.8% | 92.4% | 94.8% | 108% | 84.6% | 93.5% | 97.2% | 94.5% | 104% | 87% | 84.9% | 92.5% | 108% | 117% | 93.4% | 105% | 102% | 102% | 105% | > 10 µM | > 10 µM | > 10 µM | > 10 µM | > 10 µM | 0 | 0 | 0 | 0 | 0
O=c1c(-c2ccc(O)cc2)coc2cc(O)cc(O)c12 [genistein] | 95.2% | 89.9% | 95.9% | 102% | 82.6% | 102% | 108% | 108% | 96.1% | 97.2% | 102% | 96.6% | 105% | 97% | 90.3% | 96.4% | 91.5% | 98.1% | 103% | 82.9% | 93.9% | 98.8% | 87.1% | 87% | 95.4% | > 10 µM | > 10 µM | > 10 µM | > 10 µM | > 10 µM | 0.3 | 0 | 0 | 0.3 | 0
